Assay results as given in patent US10945992B1, “Dosage forms of rofecoxib and related methods” (Tremeau Pharmaceuticals, Inc., priority 2019, dated 2021).
Entries after “also recorded” stand apart in the source; their conditions may differ. Where two headings read alike, the source gives them in different places.

Experiments:
[1] = TRM-201-PK-101 safety: treatment-emergent adverse events; type: in vivo, human; details: 25 mg, 101 study
Excerpt: Safety and tolerability will include monitoring and recording of AEs, clinical laboratory assessments (hematology, serum chemistry, and urinalysis), vital sign measurements, 12-lead ECG assessments, and physical examination findings.
A treatment-emergent AE (TEAE) is defined as any event not present before exposure to study drug or any event already present that worsens in either intensity or frequency after exposure to study drug.
All safety data will be summarized for the PILOT portion, MAIN study, and FOOD-EFFECT sub study combined. Subjects who received 2 single doses will be counted once with all of their safety data combined. The incidence of adverse events will be presented by the MedDRA system organ class and preferred term, relationship to the test article, and severity. Descriptive statistics of clinical laboratory results and vital signs will be presented, as well as summaries of changes from baseline (from the Check-in visit(s)) and of clinically notable values.
All AE data will be presented in a data listing by study part and within the FOOD-EFFECT sub study by treatment sequence. TEAEs will be summarized overall, as well as by severity and relationship to study drug. Serious AEs and AEs leading to discontinuation of study drug will also be presented in the data listings and summarized.

[2] = 101 and 102 PK studies combined (fasted); type: in vivo; details: human, plasma, oral; for half-life: read-out: median t1/2 (converted)
Excerpt: The primary analysis model for data from this trial included data from this trial and that from the 25-mg dose from TRM-201-PK-101 (fasted results only), which were combined via mixed model repeated measures analysis (MMRM) in order to maximize the precision of the estimates. An MMRM analysis on natural log scale was simulated for the 25-mg dose (N=50) data using the between-subject SD of 0.31 from TRM-201-PK-101 and for the estimated 25-mg and 20-mg data that N=20 subjects were expected to yield in this study. The purpose of this simulation was to estimate the SD for the least squares natural log scale mean for the 20-mg dose. […] The subject effect data expected for this study was simulated from the back-calculated variance of the between-subject mean effect (Var (between-subject-mean)=SDbetween^2−SDwithin^2). For the maximum between- and within-SB's 0.31 and 0.12, 1000 simulations yielded an effective SD of 0.21 for the least squares mean of 20 mg, which was used for the following power calculations.
The arithmetic mean AUC0-∞ for 12.5 mg of TRM-201 is 2010 ng·hr/mL. The geometric mean AUC0-∞ for 12.5 mg of TRM-201 is 1880 ng·hr/mL. The arithmetic mean AUC0-∞ for 17.5 mg of TRM-201 is 3290 ng·hr/mL. The geometric mean AUC0-∞ for 17.5 mg of TRM-201 is 3110 ng·hr/mL. The arithmetic mean AUC0-∞ for 20 mg of TRM-201 is 3750 ng·hr/mL. The geometric mean AUC0-∞ for 20 mg of TRM-201 is 3550 ng·hr/mL. The arithmetic mean AUC0-∞ for 25 mg of TRM-201 is 4810 ng·hr/mL. The geometric mean AUC0-∞ for 25 mg of TRM-201 is 4590 ng·hr/mL.
The median time at which the Cmax is observed (Tmax) for 12.5 mg of TRM-201 is 2.00 hours. The median Tmax for 17.5 mg of TRM-201 is 2.00 hours. The Tmax for 20 mg of TRM-201 is 2.00 hours.

[3] = biological target: cyclooxygenase-1 (COX-1) isoenzyme (Homo sapiens, UniProt P23219); details: at therapeutic concentrations; listed as rofecoxib; cited from earlier work
Solubility of rofecoxib = type: physicochemical
Experimental: In some embodiments, rofecoxib is a white to off-white to light yellow powder. […] The 50 mg tablets may also contain red ferric oxide. […] Added as preservatives are sodium methylparaben about 0.13% and sodium propylparaben about 0.02%.
https://www.ccdc.cam.ac.uk/structures/Search?Compound=Rofecoxib&DatabaseToSearch=Published). […] Rofecoxib has no ionizable moieties and cannot form salts; the solubility of rofecoxib cannot be increased by changing pH. Therefore, in some embodiments, rofecoxib is micronized in the final step of the manufacturing process in order to increase dissolution rate. Description of Manufacturing Process and Process Controls for Rofecoxib Tablets

cyclooxygenase-1 (COX-1) isoenzyme, sequence (P23219 24-599): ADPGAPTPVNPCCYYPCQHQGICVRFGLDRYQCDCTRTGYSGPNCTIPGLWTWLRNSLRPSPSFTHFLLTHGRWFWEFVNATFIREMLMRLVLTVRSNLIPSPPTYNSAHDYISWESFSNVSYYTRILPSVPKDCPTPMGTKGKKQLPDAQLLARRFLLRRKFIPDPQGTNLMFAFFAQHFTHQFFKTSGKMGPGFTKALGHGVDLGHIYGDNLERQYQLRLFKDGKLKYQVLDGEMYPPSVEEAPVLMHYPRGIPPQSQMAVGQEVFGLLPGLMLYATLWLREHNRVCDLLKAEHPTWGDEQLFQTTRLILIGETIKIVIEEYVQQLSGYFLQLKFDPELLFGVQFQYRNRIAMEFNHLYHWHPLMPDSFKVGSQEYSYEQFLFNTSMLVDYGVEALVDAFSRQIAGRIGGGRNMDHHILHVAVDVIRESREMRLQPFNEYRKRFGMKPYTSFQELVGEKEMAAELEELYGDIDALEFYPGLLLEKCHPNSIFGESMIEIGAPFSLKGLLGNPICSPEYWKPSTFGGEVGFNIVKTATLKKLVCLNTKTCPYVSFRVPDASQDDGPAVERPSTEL

CS(=O)(=O)c1ccc(C2=C(c3ccccc3)C(=O)OC2)cc1 [TRM-201, 4-[4-(methylsulfonyl)phenyl]-3-phenyl-2(5H)-furanone]
serious TEAE or TEAE leading to discontinuation of the study [1]: No subjects
subjects observed with TEAEs [1]: four
subjects observed with TEAEs, share of the cohort [1]: 7.5%
subjects with TEAE related to treatment [1]: 2 subjects
subjects with TEAE related to treatment, share of the cohort [1]: 3.8%
AUC(0-inf) ([2]; 12.5 mg, 101 and 102 studies (FIG. 47), read-out: arithmetic mean AUC0-∞): 2010 ng·h/mL
Cmax ([2]; 12.5 mg, 101 and 102 studies (FIG. 47), read-out: arithmetic mean Cmax): 151 ng/mL
AUC(0-inf) ([2]; 12.5 mg, 101 and 102 studies (FIG. 47), read-out: geometric mean AUC0-∞): 1880 ng·h/mL
Cmax ([2]; 12.5 mg, 101 and 102 studies (FIG. 47), read-out: geometric mean Cmax): 144 ng/mL
half-life ([2]; 12.5 mg): 720 min
AUC(0-inf) ([2]; 17.5 mg, 101 and 102 studies (FIG. 47), read-out: arithmetic mean AUC0-∞): 3290 ng·h/mL
Cmax ([2]; 17.5 mg, 101 and 102 studies (FIG. 47), read-out: arithmetic mean Cmax): 236 ng/mL
AUC(0-inf) ([2]; 17.5 mg, 101 and 102 studies (FIG. 47), read-out: geometric mean AUC0-∞): 3110 ng·h/mL
Cmax ([2]; 17.5 mg, 101 and 102 studies (FIG. 47), read-out: geometric mean Cmax): 224 ng/mL
Tmax ([2]; 17.5 mg, read-out: median Tmax): 2 h
half-life ([2]; 17.5 mg): 702 min
AUC(0-inf) ([2]; 20 mg, 101 and 102 studies (FIG. 47), read-out: arithmetic mean AUC0-∞): 3750 ng·h/mL
Cmax ([2]; 20 mg, 101 and 102 studies (FIG. 47), read-out: arithmetic mean Cmax): 277 ng/mL
AUC(0-inf) ([2]; 20 mg, 101 and 102 studies (FIG. 47), read-out: geometric mean AUC0-∞): 3550 ng·h/mL
Cmax ([2]; 20 mg, 101 and 102 studies (FIG. 47), read-out: geometric mean Cmax): 259 ng/mL
Tmax ([2]; 20 mg, read-out: Tmax): 2 h
half-life ([2]; 20 mg): 732 min
AUC(0-inf) ([2]; 25 mg, 101 and 102 studies combined (FIG. 47), read-out: arithmetic mean AUC0-∞): 4810 ng·h/mL
Cmax ([2]; 25 mg, 101 and 102 studies combined (FIG. 47), read-out: arithmetic mean Cmax): 336 ng/mL
AUC(0-inf) ([2]; 25 mg, 101 and 102 studies combined (FIG. 47), read-out: geometric mean AUC0-∞): 4590 ng·h/mL
Cmax ([2]; 25 mg, 101 and 102 studies combined (FIG. 47), read-out: geometric mean Cmax): 325 ng/mL
Tmax ([2]; 25 mg, 101 and 102 studies combined, read-out: Tmax): 2.5 h
half-life ([2]; 25 mg, 101 and 102 studies combined): 696 min
inhibition of COX-1 [3]: does not inhibit; also recorded: not cyclooxygenase 1 (COX-1)
solubility (Solubility of rofecoxib; acetone): sparingly soluble
solubility (Solubility of rofecoxib; ethanol): very slightly soluble
solubility (Solubility of rofecoxib; isopropyl acetate): slightly soluble
solubility (Solubility of rofecoxib; methanol): slightly soluble
solubility (Solubility of rofecoxib; octanol): practically insoluble
solubility (Solubility of rofecoxib; water, listed as Rofecoxib): practically insoluble
solubility (Solubility of rofecoxib; water, listed as rofecoxib): insoluble
solubility (Solubility of rofecoxib; water, read-out: solubility in water): < 100 µg/mL
